Measured values from ChEMBL document CHEMBL1201862, “PubChem BioAssay data set” (2004).
One block for each compound: values may come before it. Calls of active or inactive are those of the source.

How the values were obtained:
Mu-type opioid receptor = Mu-type opioid receptor (Homo sapiens, UniProt P35372); assay: HTS Image-Based Screen for Agonists of the MOR Receptor. [Related pubchem assays (depositor defined):AID1777, AID1785, AID1786, AID2133]; type: functional;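 further: imaging of beta-arrestin GFP recruitment into spots after receptor activation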
Chain of Mu-type opioid receptor (P35372 whole entry): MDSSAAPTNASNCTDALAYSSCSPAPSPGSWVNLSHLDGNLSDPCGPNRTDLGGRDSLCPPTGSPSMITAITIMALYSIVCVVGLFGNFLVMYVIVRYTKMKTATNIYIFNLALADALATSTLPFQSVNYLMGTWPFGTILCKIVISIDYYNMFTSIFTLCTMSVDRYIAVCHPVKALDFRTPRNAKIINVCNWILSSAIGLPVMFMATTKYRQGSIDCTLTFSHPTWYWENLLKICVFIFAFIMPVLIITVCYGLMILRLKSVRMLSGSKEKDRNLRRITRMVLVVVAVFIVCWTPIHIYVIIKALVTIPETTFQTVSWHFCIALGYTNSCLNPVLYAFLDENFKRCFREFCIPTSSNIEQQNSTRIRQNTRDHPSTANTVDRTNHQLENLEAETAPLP

Melanocortin receptor 4 = Melanocortin receptor 4 (Homo sapiens, UniProt P32245); type: functional, cell-based;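 further: Cell-based assay with luminescence read-out, confirmatory dose-response testing for agonist activity of biased ligands at MC4R; human U2OS cells with tagged receptor and beta-arrestin; potency of agonists that increase receptor coupling to beta-arrestin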
Chain of Melanocortin receptor 4 (P32245 whole entry): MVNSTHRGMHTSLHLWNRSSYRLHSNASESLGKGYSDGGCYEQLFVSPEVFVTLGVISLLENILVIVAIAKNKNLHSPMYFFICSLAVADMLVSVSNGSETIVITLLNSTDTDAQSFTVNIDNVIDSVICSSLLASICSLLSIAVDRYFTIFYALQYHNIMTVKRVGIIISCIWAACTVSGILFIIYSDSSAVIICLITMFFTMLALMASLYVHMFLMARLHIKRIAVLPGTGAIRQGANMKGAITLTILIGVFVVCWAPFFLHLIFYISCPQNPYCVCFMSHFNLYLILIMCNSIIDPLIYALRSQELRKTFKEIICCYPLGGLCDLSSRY

[1] = target: T1, Delta-type opioid receptor (Homo sapiens, UniProt P41143); assay: HTS Image-Based Screen for Antagonists of the DOR Receptor. [Related pubchem assays (depositor defined):AID1777, AID1785, AID1786, AID2133]; type: functional
T1 sequence (P41143 whole entry): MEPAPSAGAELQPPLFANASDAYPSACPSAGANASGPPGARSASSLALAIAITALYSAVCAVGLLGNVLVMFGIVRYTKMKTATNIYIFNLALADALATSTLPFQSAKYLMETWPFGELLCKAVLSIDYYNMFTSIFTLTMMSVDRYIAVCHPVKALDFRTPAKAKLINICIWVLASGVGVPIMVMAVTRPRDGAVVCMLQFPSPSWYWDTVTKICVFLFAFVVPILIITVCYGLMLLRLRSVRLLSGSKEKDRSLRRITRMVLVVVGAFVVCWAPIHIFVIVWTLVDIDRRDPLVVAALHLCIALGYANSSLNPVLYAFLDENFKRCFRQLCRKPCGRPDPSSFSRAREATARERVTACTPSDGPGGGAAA

[2] = target: T1, Delta-type opioid receptor; assay: HTS Image-Based Screen for Agonists of the DOR Receptor. [Related pubchem assays (depositor defined):AID1777, AID1786, AID2133]; type: functional
[3] = target: T2, Kappa-type opioid receptor (Homo sapiens, UniProt P41145); type: functional
T2 sequence (P41145 whole entry): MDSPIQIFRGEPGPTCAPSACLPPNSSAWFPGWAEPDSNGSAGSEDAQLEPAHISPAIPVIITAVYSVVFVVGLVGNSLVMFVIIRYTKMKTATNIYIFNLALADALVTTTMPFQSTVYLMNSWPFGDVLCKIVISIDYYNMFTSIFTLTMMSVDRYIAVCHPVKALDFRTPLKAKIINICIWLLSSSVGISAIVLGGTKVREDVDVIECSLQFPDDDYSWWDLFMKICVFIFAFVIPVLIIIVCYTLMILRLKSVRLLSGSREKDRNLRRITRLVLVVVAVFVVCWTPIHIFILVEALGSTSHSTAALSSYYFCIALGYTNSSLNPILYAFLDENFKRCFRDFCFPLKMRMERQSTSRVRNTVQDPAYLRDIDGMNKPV

[4] = target: T2, Kappa-type opioid receptor; type: functional; remark: listed apart in the source
[5] = target: Lysine-specific demethylase 4A (Homo sapiens, UniProt O75164); assay: JMJD2A histone demethylase inhibitors, dose response, selectivity assay for GASC-1 inhibitor project, biochemical, DELFIA europium, cherry-picked samples (AID 488840)
Chain of Lysine-specific demethylase 4A (O75164 whole entry): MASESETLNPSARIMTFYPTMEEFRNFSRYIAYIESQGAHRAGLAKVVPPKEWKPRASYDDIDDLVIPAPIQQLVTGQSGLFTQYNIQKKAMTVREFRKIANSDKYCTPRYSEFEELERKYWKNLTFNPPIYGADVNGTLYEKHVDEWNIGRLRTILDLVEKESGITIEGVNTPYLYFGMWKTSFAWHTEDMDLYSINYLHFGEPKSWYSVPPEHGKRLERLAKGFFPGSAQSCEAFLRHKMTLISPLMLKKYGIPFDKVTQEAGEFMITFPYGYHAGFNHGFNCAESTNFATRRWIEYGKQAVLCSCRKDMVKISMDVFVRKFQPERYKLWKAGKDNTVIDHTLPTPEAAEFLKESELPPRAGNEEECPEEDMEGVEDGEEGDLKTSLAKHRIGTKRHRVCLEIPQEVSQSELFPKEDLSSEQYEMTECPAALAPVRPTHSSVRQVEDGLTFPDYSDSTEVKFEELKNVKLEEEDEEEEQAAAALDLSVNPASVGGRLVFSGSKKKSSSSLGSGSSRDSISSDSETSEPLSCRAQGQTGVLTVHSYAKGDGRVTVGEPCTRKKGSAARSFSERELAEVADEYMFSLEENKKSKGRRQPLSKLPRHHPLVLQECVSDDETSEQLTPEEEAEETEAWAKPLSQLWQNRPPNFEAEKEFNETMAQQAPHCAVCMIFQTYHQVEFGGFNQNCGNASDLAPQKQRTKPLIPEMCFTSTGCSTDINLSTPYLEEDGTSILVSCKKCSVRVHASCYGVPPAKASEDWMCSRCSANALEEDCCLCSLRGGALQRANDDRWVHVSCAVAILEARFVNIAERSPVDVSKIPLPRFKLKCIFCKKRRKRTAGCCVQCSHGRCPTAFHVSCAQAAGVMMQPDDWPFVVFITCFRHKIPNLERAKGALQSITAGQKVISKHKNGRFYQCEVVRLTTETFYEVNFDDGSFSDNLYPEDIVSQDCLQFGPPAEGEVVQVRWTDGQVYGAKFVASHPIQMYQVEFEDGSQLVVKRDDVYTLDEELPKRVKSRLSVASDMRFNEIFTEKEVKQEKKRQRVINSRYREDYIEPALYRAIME

Genome polyprotein = Genome polyprotein (dengue virus type 2, UniProt P29990); assay: Dengue-2 NS5 methyltransferase inhibitors, primary screen, biochemical, confirmation dose response (AID 588689); type: functional
Chain of Genome polyprotein (P29990 2492-3391 limits assumed): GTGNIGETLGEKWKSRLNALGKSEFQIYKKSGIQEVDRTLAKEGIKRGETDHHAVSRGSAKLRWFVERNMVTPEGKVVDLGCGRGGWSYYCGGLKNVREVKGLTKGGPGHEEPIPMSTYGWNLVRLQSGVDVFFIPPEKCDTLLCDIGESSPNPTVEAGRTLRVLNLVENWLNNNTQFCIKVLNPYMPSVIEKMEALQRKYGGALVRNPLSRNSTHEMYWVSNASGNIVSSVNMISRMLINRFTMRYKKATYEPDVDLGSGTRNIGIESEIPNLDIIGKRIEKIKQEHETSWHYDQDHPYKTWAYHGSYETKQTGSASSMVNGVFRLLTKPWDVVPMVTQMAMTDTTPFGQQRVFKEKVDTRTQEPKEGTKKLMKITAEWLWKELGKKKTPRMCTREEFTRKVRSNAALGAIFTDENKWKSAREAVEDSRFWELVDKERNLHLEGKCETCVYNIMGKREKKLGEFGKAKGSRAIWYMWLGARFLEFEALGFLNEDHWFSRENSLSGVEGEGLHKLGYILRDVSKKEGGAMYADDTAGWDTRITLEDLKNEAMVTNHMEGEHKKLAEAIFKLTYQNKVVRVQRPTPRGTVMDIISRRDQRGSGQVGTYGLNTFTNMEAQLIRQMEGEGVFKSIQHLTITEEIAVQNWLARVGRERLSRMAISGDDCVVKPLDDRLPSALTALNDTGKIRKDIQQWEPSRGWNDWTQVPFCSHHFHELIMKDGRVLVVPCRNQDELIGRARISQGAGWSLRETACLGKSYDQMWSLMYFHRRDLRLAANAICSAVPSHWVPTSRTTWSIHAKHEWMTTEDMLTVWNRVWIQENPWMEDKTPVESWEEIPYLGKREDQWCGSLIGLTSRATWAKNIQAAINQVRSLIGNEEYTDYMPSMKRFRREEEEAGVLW

Coagulation factor XII = target: T3, Coagulation factor XII (Homo sapiens, UniProt P00748); assay: Factor XIIa Dose Response Confirmation from Single Well HTS. [Related pubchem assays (depositor defined):AID701]; type: functional
T3 sequence (P00748 whole entry): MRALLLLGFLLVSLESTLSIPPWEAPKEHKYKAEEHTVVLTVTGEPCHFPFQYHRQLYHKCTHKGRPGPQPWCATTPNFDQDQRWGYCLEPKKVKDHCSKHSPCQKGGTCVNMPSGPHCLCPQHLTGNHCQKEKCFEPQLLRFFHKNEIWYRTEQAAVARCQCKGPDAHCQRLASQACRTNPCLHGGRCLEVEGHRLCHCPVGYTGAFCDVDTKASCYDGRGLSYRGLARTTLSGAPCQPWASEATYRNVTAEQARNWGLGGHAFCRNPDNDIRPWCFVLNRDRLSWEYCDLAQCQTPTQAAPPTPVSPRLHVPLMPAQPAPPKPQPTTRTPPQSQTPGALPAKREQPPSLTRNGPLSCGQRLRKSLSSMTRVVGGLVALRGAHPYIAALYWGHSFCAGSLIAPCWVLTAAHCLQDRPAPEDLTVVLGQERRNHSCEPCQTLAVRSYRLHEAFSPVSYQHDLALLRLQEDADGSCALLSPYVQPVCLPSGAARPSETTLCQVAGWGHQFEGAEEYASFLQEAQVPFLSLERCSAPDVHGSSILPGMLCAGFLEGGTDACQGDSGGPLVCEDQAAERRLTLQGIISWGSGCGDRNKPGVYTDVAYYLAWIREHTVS

[6] = target: T4, Polyadenylate-binding protein 1 (Homo sapiens, UniProt P11940); assay: PABP1 MLLE–PAM2 binding inhibitor potency, dose response, biochemical, fluorescence polarization, FITC-PAM2 peptide (AID 602259); type: functional; details: read-out: IC50_Mean
T4 sequence (P11940 whole entry): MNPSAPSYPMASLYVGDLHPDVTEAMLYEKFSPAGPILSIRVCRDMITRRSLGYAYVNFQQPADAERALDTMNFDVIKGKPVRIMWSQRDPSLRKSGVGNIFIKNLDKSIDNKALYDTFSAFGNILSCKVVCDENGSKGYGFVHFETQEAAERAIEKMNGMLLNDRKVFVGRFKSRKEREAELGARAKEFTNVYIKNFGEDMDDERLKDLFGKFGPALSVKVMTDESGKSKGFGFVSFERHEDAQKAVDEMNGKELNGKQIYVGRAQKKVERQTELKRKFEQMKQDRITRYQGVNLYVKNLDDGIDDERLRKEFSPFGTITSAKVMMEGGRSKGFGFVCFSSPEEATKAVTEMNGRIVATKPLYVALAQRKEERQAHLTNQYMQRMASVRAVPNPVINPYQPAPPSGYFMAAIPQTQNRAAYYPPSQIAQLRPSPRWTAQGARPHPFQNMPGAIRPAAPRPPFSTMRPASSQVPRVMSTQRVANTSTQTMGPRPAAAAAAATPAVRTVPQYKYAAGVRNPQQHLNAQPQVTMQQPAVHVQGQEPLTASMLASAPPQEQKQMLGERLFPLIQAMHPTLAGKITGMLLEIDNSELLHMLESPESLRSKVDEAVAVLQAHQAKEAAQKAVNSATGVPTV

Protein Tat = Protein Tat (Human immunodeficiency virus type 1 group M subtype B (isolate HXB2)(HIV-1), UniProt P04608); type: functional;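 further: tat binding to TAR RNA read out by fluorescence polarization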
Chain of Protein Tat (P04608 whole entry): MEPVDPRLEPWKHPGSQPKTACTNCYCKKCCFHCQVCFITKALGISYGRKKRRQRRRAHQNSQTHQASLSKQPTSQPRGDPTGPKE

Hexokinase HKDC1 = target: T5, Hexokinase HKDC1 (Homo sapiens, UniProt Q2TB90); assay: HKDC1 hexokinase inhibitors, dose response, biochemical, W721R variant (AID 504729); type: functional
T5 sequence (Q2TB90 whole entry): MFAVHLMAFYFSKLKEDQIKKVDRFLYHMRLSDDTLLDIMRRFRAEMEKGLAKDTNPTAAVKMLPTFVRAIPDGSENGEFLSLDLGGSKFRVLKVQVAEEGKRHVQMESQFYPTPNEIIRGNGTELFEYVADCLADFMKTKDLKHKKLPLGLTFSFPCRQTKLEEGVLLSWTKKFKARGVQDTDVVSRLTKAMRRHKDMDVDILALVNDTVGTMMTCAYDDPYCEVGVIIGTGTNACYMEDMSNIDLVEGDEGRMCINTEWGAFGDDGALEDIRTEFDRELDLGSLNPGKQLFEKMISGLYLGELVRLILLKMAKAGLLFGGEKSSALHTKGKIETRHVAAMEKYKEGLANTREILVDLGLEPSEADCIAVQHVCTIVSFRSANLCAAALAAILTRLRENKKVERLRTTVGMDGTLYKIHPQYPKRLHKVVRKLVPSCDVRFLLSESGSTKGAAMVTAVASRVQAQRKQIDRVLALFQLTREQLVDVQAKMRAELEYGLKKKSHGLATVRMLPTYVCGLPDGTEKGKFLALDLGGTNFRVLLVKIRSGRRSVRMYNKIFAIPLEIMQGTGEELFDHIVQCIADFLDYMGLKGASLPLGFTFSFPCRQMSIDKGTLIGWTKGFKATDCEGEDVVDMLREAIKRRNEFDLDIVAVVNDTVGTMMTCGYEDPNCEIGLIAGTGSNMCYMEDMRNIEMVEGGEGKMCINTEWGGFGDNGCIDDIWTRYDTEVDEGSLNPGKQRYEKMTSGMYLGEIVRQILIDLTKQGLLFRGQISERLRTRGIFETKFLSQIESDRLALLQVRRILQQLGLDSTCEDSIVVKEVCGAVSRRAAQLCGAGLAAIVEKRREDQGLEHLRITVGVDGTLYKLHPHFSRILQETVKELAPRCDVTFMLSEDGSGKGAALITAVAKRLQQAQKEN

[7] = target: T6, Runt-related transcription factor 1/Core-binding factor subunit beta (Homo sapiens, UniProt Q01196+Q13951); assay: inhibitors of RUNX1 Runt–CBFb-SMMHC binding, primary screen, biochemical, FRET, Cerulean-Runt, Venus-CBFb-SMMHC, uHTS (AID 1434); type: protein assay;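 further: partner is the CBFb-SMMHC leukemia fusion protein rather than wild-type CBFb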
T6 sequence (Q01196 whole entry, the tested form may be a part): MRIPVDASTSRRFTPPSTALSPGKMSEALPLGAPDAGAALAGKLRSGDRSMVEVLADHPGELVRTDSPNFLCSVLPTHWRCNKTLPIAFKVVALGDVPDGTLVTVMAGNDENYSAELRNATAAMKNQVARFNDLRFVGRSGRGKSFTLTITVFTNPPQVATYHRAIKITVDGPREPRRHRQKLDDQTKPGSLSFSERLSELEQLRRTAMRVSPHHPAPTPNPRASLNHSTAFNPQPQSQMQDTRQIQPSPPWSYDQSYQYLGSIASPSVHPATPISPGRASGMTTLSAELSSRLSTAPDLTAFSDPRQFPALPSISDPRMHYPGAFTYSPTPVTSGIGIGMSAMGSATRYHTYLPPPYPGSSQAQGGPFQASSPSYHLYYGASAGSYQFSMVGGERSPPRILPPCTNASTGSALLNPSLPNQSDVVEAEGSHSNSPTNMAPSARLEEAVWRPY
T6 sequence (Q13951 whole entry, the tested form may be a part): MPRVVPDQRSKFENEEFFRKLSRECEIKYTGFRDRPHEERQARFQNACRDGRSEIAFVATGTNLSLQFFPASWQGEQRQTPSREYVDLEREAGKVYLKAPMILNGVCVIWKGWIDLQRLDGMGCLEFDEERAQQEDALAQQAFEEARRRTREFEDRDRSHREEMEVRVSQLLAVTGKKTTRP

[8] = target: T6, Runt-related transcription factor 1/Core-binding factor subunit beta; assay: inhibitors of RUNX1 Runt–CBFb-SMMHC binding, biochemical, TR-FRET (AID 1438); type: protein assay
[9] = target: T4, Polyadenylate-binding protein 1; assay: PABP1 MLLE–PAM2 interaction inhibitors, dose response, miRNA deadenylation inhibitor project, biochemical, fluorescence polarization, Cy5-PAM2 peptide, secondary (AID 602260); type: functional; details: read-out: IC50_Mean
[10] = target: Voltage-dependent T-type calcium channel subunit alpha-1H (Homo sapiens, UniProt O95180); assay: Cav3.2 T-type channel blockers, cell-based, SynthLib3 library, HEK293 Cav3.2, fluorescence (AID 493041); type: functional

SMILES: Nc1ccc(C2(c3ccc(N)cc3)c3ccccc3-c3ccccc32)cc1
EC50 (Mu-type opioid receptor): > 32 µM (inactive) | EC50 (Melanocortin receptor 4): > 89.2 µM (inactive) | IC50 [1]: > 32 µM (inactive) | EC50 [2]: > 32 µM (inactive) | EC50 [3]: > 35 µM | EC50 [4]: 8.41 µM

SMILES: COc1ccc(N2CCN(C(=O)CSc3nnc(-c4cccnc4)n3-c3ccccc3)CC2)cc1
AC50 [5]: > 60 µM (inactive)

SMILES: COc1ccc(N2C3=C(CC4=C2CCCC4=O)C(=O)CCC3)cc1
IC50 [6]: > 66 µM (inactive) | IC50 (Protein Tat): > 100 µM (active) | IC50 (Hexokinase HKDC1): 8.05 µM (active) | IC50 [7]: 0.372 µM (active) | IC50 [8]: 17.7 µM (active) | IC50 [9]: > 66 µM (inactive)

Continued, values first:

IC50 (Genome polyprotein): 18.7 µM (active) | IC50 (Coagulation factor XII): > 50 µM (inactive)
SMILES: O=C1C(Cl)=C(N2CCOCC2)C(=O)N1c1ccccc1

EC50 [10]: 10 µM (active)
SMILES: CCC(C)CN1CCC[C@H](NC(=O)COc2ccc(F)c(Cl)c2)C1 (stereo partly specified)
